Experimental data as given in patent US20230220047A1, “PEPTIDES FOR TREATMENT OF SEPSIS AND CANCER” (NORWEGIAN UNIVERSITY OF SCIENCE AND TECHNOLOGY (NTNU), priority 2020, published 2023).

How the values were obtained:
TLR8 = assay: qPCR of CL075-induced TLR8-mediated cytokine expression in primary human monocytes; assay type: cell-based; settings: 15 μM, CL075 1 μg/ml
Description: Cells were pre-treated with 15 μM peptides for 30 min, followed by addition of LPS (100 ng/ml) (A) or CL075 (1 μg/ml) (B) for 2 or 4 h. Each dot on the graphs corresponds to the average value for one donor, the lines show the mean values for all donors, and error bars indicate the SD.
Total RNA was isolated from the cells using Qiazol reagent #79306 from QIAGEN, and chloroform extraction followed by purification on RNeasy Mini columns with DNAse digestion (Qiagen). cDNA was prepared using the Maxima First Strand cDNA Synthesis Kit for quantitative real-time polymerase chain reaction (RT-qPCR) (Thermo Fisher Scientific) according to the manufacturer's protocol. qPCR was performed using the PerfeCTa qPCR FastMix (Quanta Biosciences) in replicates and cycled in a StepOnePlus™ Real-Time PCR cycler. The following TaqMan® Gene Expression Assays (Applied Biosystems®) were used: IFNβ (Hs01077958_s1), TNF (Hs00174128_m1), TBP (Hs00427620_m1), CXCL10 (Hs01124251_g1), IL-6 (Hs00174131_m1) and IL-1β (Hs01555410_m1), for human cells; Ifnβ (Mm00439552_s1), Tnf (Mm00443258_m1), Tbp (Mm01277042_m1) and II-1β (Mm00434228_m1), for mouse cells. […] Relative expression was calculated using Pfaffl's mathematical model (Pfaffl, Nucleic Acids Research 29(9): e45, 2001). […] Statistical significance was evaluated in GraphPad Prizm 5.03. […] The difference between the two groups was determined by two-tailed t test. […]

SW480 cells = assay: Proliferation of SW480 colon cancer cells; assay type: cell-based, human; settings: 15 μM, 48 h, with or without LPS 100 ng/ml
Description: SW480 cells were seeded and incubated in medium alone or supplemented with water, 15 μM penetratin, 15 μM P7-Pen or 15 μM P7-N4-Pen. Under each condition cells were incubated both without LPS and with 100 ng/ml LPS. Cells were incubated for 48 hours then counted. […] The presence of LPS made no difference to the effect of the peptides on proliferation. Results are based on 3 biological replicates, error bars show standard deviation of mean.
SW480 (ATCC CCL-228) and Jurkat (ATCC Clone E6-1; TIB-152) cells were cultured in RPMI 1640 (Sigma-Aldrich, Schnelldorf, Germany) supplemented with 10% heat-inactivated FCS, penicillin/streptomycin (Life Technologies) and 20 mM L-Glutamine. THP-1 cells (ATCC TIB-202) were cultured in RPMI-1640 (high-glucose, ATCC) supplemented with 10% heat inactivated foetal calf serum (FCS), 100 nM penicillin/streptomycin and 5 μM β-mercaptoethanol (Sigma). THP-1 cells were differentiated with 60 ng/ml phorbol 12-myristate 13-acetate (PMA, Sigma) for 72 h, followed by 24 or 48 h in medium without PMA.
The peptides were tested against the SW480 cell line in the presence and absence of LPS.

human IL-1 receptor = assay: HEK-Blue IL-1R cells stimulated with human recombinant IL-1β; assay type: cell-based
From the text: TLR2 and 4, and the endosomal TLRs 7-9, use the Myddosome signaling complex to activate transcription of pro-inflammatory cytokines, and endosomal TLRs also activate expression of type I IFNs via the same signaling complex. There are also several IL-1-like receptors including the IL-1 receptor (IL-1R) itself, which is characterized by extracellular immunoglobulin-like domains and intracellular Toll/Interleukin-1R (TIR) domains. These receptors also use the Myddosome complex to initiate downstream signaling. Therefore, we decided to test if signaling downstream of human IL-1R could be altered by the P7-Pen peptide. We used HEK-Blu IL-1R cells (Invivogen) that endogenously express the human IL-1 receptor. HEK-Blue IL-1R cells express a SEAP reporter gene under the control of the IFNβ minimal promoter fused to five NF-κB and five AP-1 binding sites. Binding of IL-1β to its receptor IL-1R on the surface of HEK-Blue IL-1R cells triggers a signaling cascade leading to the activation NF-κB and the subsequent production of SEAP.
In the assay, HEK-Blue IL-1R cells were pre-treated with control peptide or P7-Pen and stimulated with human recombinant II-1β (hII-1β) for up to 3 hr or for 24 hr. Stimulation of cells by TLR2 and 4 as well as by IL-1β would result in fast posttranslational modifications of IRAK1 in the Myddosome, and in phosphorylation of p38 MAPK. […]

STAT1 = assay: Western blot of STAT1 phosphorylation in LPS-stimulated THP-1 cells; assay type: cell-based, human; settings: LPS
Description: Protein pellets were dissolved by heating protein pellets for 10 min at 95° C. in buffer containing 4 M urea, 1 SDS (Sigma) and NuPAGE® LDS Sample Buffer (4×) (Thermo Fisher Scientific). Otherwise, lysates were made using 1× RIPA lysis buffer (150 mM NaCl, 50 mM TrisHCl (pH 7.5), 1% Triton X100, 5 mM EDTA, protease inhibitors, phosphatase inhibitors). For Western blot analysis we used pre-cast protein gels NuPAGE™ Novex™ and iBlot Transfer Stacks iBlot Gel Transfer Device (Thermo Fisher Scientific). Proteins were transferred to the membrane by dry-blotting using iBlot® 2 NC Regular/Mini Stacks (Life Technologies) in the iBlot 2 Dry Blotting System (Life Technologies). After secondary antibody incubation, membranes were washed and incubated with HRP substrate solution (SuperSignal™ West Femto Maximum Sensitivity Substrate (Thermo Fisher Scientific)). Images were taken using Odyssey® Fc (LI-CORE). Quantification graphs were generated by the analysis of signal intensities for protein bands (protein of interest and endogenous loading control—β-tubulin from the same membrane) using Odyssey software (LI-CORE). Data were normalised to the expression levels of β-tubulin and presented as a relative fold change to the control sample.

## Ac-ITVYASVTLTGRQIKIWFQNRRMKWKK-NH2 [Peptide P7-Pen]
TLR8
  CL075-induced TLR8-mediated IFNβ mRNA expression: inhibited
  expression of proinflammatory cytokines: no significant effect
SW480 cells
  effect on proliferation of SW480 cells: a degree of anti-proliferative effect
Human IL-1 receptor; data not shown
  IL-1β-induced IRAK1 posttranslational modifications or p-p38 MAPK levels: no effect
Human IL-1 receptor; versus cells pre-treated with control peptide Pen (data not shown)
  IL-1β-mediated secretion of SEAP: comparable

## Ac-ITVYASVTLTGRRRRRRRRRRR-NH2 [Peptide P7-Arg11]
STAT1; 10 μM
  phosphorylation of STAT1: strongly inhibited
STAT1; 20 μM
  phosphorylation of STAT1: fully abrogated
